Reference: ChEMBL document CHEMBL5032521, “Design, synthesis and anti-tumor evaluation of 1,2,4-triazol-3-one derivatives and pyridazinone derivatives as novel CXCR2 antagonists” (Eur J Med Chem, 2021)
Values belong to the compound of their own block, whether it stands above or below them. Active and inactive are the calls of the source. The rule behind the calls is not given here.

Experiments:
[1] = biological target: T1, C-X-C chemokine receptor type 2 (Homo sapiens) (UniProt P25025); test: Antagonist activity at CXCR2 (unknown origin) at 10 uM by calcium flux assay relative to control; assay type: functional
T1 sequence (whole entry): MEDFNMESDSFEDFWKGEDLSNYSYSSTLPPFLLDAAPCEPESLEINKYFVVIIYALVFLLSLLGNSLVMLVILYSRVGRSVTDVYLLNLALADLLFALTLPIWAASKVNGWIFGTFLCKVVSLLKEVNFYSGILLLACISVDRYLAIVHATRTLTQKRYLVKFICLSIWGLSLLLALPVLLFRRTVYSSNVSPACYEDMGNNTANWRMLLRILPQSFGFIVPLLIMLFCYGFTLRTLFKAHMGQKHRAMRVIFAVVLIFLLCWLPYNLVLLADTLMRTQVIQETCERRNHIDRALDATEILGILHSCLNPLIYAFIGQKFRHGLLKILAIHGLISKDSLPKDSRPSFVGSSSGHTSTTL

[2] = test system: MDA-MB-231; test: Antimigratory activity against human MDA-MB-231 cells assessed as reduction in cell migration at 2 uM measured after 24 hrs by wound healing assay relative to control; assay type: functional; parameters: scale not given: the % may be the effect or the level left
[3] = test system: MDA-MB-231; test: Inhibition of epithelial-mesenchymal transition in human MDA-MB-231 cells assessed as downregulation of fibronectin expression at 10 uM measured after 24 hrs by Western blot assay; assay type: functional, cell-based
[4] = test system: MDA-MB-231; test: Induction of ROS production in human MDA-MB-231 cells assessed as increase in mean fluorescence intensity at 10 uM measured after 24 hrs by DCFH-DA staining based inverted microscopic analysis; assay type: functional, cell-based
[5] = test system: HUVEC; test: Anti-angiogenesis activity in HUVEC cells assessed as reduction in blood vessel area at 2 uM measured after 12 hrs by inverted microscopic analysis relative to control; assay type: functional, Homo sapiens; parameters: scale not given: the % may be the effect or the level left
[6] = test system: MDA-MB-231; test: Inhibition of PI3K signalling in human MDA-MB-231 cells assessed as decrease in AKT phosphorylation at 5 to 10 uM measured after 24 hrs by Western blot assay; assay type: cell-based; conditions: dose 5-10 µM
[7] = test system: MDA-MB-231; test: Synergistic antiproliferative activity against human MDA-MB-231 cells assessed as inhibition of cell growth at 10 uM incubated for 72 hrs in presence of Sorafenib by MTT assay; assay type: functional, cell-based; conditions: MDA-MB-231, 72 h
[8] = test system: HUVEC; test: Down-regulation of VEGF expression in HUVEC cells assessed as 10 uM measured after 24 hrs by Western blot assay; assay type: functional, cell-based; conditions: Homo sapiens
[9] = test system: MDA-MB-231; test: Antimigratory activity against human MDA-MB-231 cells assessed as reduction in cell migration at 2 uM measured after 24 hrs by crystal violet staining based transwell assay relative to control; assay type: functional; parameters: scale not given: the % may be the effect or the level left
[10] = test system: MDA-MB-231; test: Inhibition of epithelial-mesenchymal transition in human MDA-MB-231 cells assessed as downregulation of vimentin expression at 10 uM measured after 24 hrs by Western blot assay; assay type: functional, cell-based
[11] = test system: MDA-MB-231; test: Inhibition of PI3K signalling in human MDA-MB-231 cells assessed as decrease in PI3K phosphorylation at 5 to 10 uM measured after 24 hrs by Western blot assay; assay type: cell-based; conditions: dose 5-10 µM
[12] = test system: MDA-MB-231; test: Inhibition of epithelial-mesenchymal transition in human MDA-MB-231 cells assessed as downregulation of beta-catenin expression at 10 uM measured after 24 hrs by Western blot assay; assay type: functional, cell-based
[13] = test system: MDA-MB-231; test: Synergistic antiproliferative activity against human MDA-MB-231 cells assessed as inhibition of cell growth at 25 uM incubated for 72 hrs in presence of Sorafenib by MTT assay; assay type: functional, cell-based; conditions: MDA-MB-231, 72 h
[14] = test system: MDA-MB-231; test: Antiproliferative activity against human MDA-MB-231 cells assessed as reduction in cell viability measured after 72 hrs by MTT assay; assay type: functional, cell-based; conditions: MDA-MB-231, 72 h
[15] = test system: MDA-MB-231; test: Inhibition of epithelial-mesenchymal transition in human MDA-MB-231 cells assessed as upregulation of E-cadherin expression at 10 uM measured after 24 hrs by Western blot assay; assay type: functional, cell-based
[16] = test system: Caco-2; test: Cytotoxicity against human Caco2 cells; assay type: functional, cell-based

SMILES: Cc1cccc(-n2nc(C(=O)Nc3cccc(C(=O)N(C)C)c3O)n(C)c2=O)c1
inhibition ([1]; filed as antagonist): 43.8%

SMILES: Cc1cc(=O)n(-c2ccc(Cl)cc2Cl)nc1C(=O)Nc1cccc(C(=O)N(C)C)c1O
inhibition [1]: -8.2%

SMILES: Cc1ccccc1-n1nc(C(=O)Nc2cccc(C(=O)N(C)C)c2O)c(C)cc1=O
inhibition [1]: 6.1%

SMILES: Cc1ccc(-n2nc(C(=O)Nc3cccc(C(=O)N(C)C)c3O)n(C)c2=O)cc1
inhibition [1]: 24.3%

SMILES: CN(C)C(=O)c1cccc(NC(=O)c2nn(-c3ccc(F)cc3)c(=O)n2C)c1O
inhibition [1]: 12.7%

SMILES: O=C(Nc1ccc([N+](=O)[O-])cc1O)Nc1ccccc1Br
Activity [2]: 52.3% | inhibition [3]: Active | Activity [4]: Active | Activity [5]: 55.2% | Activity [8]: inactive | Activity [9]: 44% | inhibition [10]: Active | inhibition [12]: Active | inhibition [15]: Active

SMILES: CC[C@@H](Nc1c(Nc2cccc(C(=O)N(C)C)c2O)c(=O)c1=O)c1ccc(C)o1 [NAVARIXIN ANHYDROUS]
IC50 [16]: 18.8 µM

SMILES: C#Cc1ccc(-n2nc(C(=O)Nc3cccc(C(=O)N(C)C)c3O)n(C)c2=O)cc1
inhibition ([1]; filed as antagonist): 49.2%

SMILES: CN(C)C(=O)c1cccc(NC(=O)c2nn(-c3ccc(Cl)cc3)c(=O)n2C)c1O
inhibition [1]: 27.2%

SMILES: CN(C)C(=O)c1cccc(NC(=O)c2nn(-c3ccc(C(C)(C)C)cc3)c(=O)n2C)c1O
inhibition ([1]; filed as antagonist): 40.9%

SMILES: CN(C)C(=O)c1cccc(NC(=O)c2nn(-c3ccccc3)c(=O)n2C)c1O
inhibition [1]: 18.6%

SMILES: CN(C)C(=O)c1cccc(NC(=O)c2nn(-c3ccc(Cl)cc3Cl)c(=O)n2C)c1O
inhibition [1]: 26.6%

SMILES: CN(C)C(=O)c1cccc(NC(=O)c2nn(-c3ccc(Cl)c(Cl)c3)c(=O)n2C)c1O
inhibition [1]: 32.3%

SMILES: Cc1ccccc1-n1nc(C(=O)Nc2cccc(C(=O)N(C)C)c2O)n(C)c1=O
inhibition ([1]; filed as antagonist): 43.8%

SMILES: Cc1cc(=O)n(-c2ccc(Cl)c(Cl)c2)nc1C(=O)Nc1cccc(C(=O)N(C)C)c1O
inhibition [1]: 10.9%

SMILES: CNC(=O)c1cc(Oc2ccc(NC(=O)Nc3ccc(Cl)c(C(F)(F)F)c3)cc2)ccn1 [SORAFENIB]
IC50 [14]: 8.52 µM

Further lines, with some results ahead:

inhibition [1]: 11.2%
SMILES: Cc1cccc(-n2nc(C(=O)Nc3cccc(C(=O)N(C)C)c3O)c(C)cc2=O)c1

inhibition [1]: 20.4%
SMILES: Cc1cc(=O)n(-c2ccc(C(C)(C)C)cc2)nc1C(=O)Nc1cccc(C(=O)N(C)C)c1O

inhibition [1]: 3.2%
SMILES: Cc1cc(=O)n(-c2ccccc2)nc1C(=O)Nc1cccc(C(=O)N(C)C)c1O

IC50 [7]: 5.93 µM | IC50 [13]: 2.96 µM | inhibition ([1]; filed as antagonist): 69.4% | IC50 [14]: > 25 µM
SMILES: Cc1cc(=O)n(-c2ccc(C(F)(F)F)cc2)nc1C(=O)Nc1cccc(C(=O)N(C)C)c1O
Activity [2]: 52% | inhibition [3]: Active | Activity [4]: Active | Activity [5]: 59.2% | inhibition [6]: Active | Activity [8]: Active | Activity [9]: 49.7% | inhibition [10]: Active | inhibition [11]: Active | inhibition [12]: Active | inhibition [15]: Active

inhibition [1]: 21.6%
SMILES: CN(C)C(=O)c1cccc(NC(=O)c2nn(-c3ccc(C(F)(F)F)cc3)c(=O)n2C)c1O

inhibition [1]: 1.5%
SMILES: C#Cc1ccc(-n2nc(C(=O)Nc3cccc(C(=O)N(C)C)c3O)c(C)cc2=O)cc1

inhibition [1]: 26.9%
SMILES: Cc1ccc(-n2nc(C(=O)Nc3cccc(C(=O)N(C)C)c3O)c(C)cc2=O)cc1

inhibition [1]: 34.6%
SMILES: COc1ccc(-n2nc(C(=O)Nc3cccc(C(=O)N(C)C)c3O)c(C)cc2=O)cc1

inhibition [1]: -0.8%
SMILES: Cc1cc(=O)n(-c2ccc(F)cc2)nc1C(=O)Nc1cccc(C(=O)N(C)C)c1O
